Experimental data published in ChEMBL document CHEMBL1132463, “Metabolism-based brain-targeting system for a thyrotropin-releasing hormone analogue” (1999).
Square brackets hold non-standard residues; d marks the D form. Peptide text beside a SMILES is read from it. * marks the point of attachment. Nicotinoyl(1-Me-1,4-dihydro) = CN1C=CCC(C(=O)*)=C1; X1 = CC(C)CCC(C)C1CCC2C3CC=C4CC(O*)CCC4(C)C3CCC12C; pGlu = O=C1CC[C@@H](C(=O)O)N1

System: Mus musculus
Assay: Barbiturate-induced sleeping time in mice after the administration of the compound
Format: functional

| SMILES | Sleeping time [min] |
| --- | --- |
| CC(C)C[C@H](NC(=O)[C@@H]1CCC(=O)N1)C(=O)N1CCC[C@H]1C(N)=O ([pGlu]-Leu-Pro-NH2) | 45.5 |
| CC(C)CCC(C)C1CCC2C3CC=C4CC(OC(=O)CNC(=O)[C@@H]5CCCN5C(=O)[C@H](CC(C)C)NC(=O)[C@H](CCC(N)=O)NC(=O)[C@H](C)NC(=O)[C@H](C)NC(=O)C5=CN(C)C=CC5)CCC4(C)C3CCC12C (some centres not stated) ({Nicotinoyl(1-Me-1,4-dihydro)}-AAQLPG-X1) | 37 |
| CC(C)CCC(C)C1CCC2C3CC=C4CC(OC(=O)CNC(=O)[C@@H]5CCCN5C(=O)[C@H](CC(C)C)NC(=O)[C@H](CCC(N)=O)NC(=O)[C@@H]5CCCN5C(=O)[C@H](C)NC(=O)C5=CN(C)C=CC5)CCC4(C)C3CCC12C (some centres not stated) ({Nicotinoyl(1-Me-1,4-dihydro)}-APQLPG-X1) | 35 |
| CC(C)CCC(C)C1CCC2C3CC=C4CC(OC(=O)CNC(=O)[C@@H]5CCCN5C(=O)[C@H](CC(C)C)NC(=O)[C@H](CCC(N)=O)NC(=O)[C@H](C)NC(=O)C5=CN(C)C=CC5)CCC4(C)C3CCC12C (some centres not stated) ({Nicotinoyl(1-Me-1,4-dihydro)}-AQLPG-X1) | 38 |
| CC(C)CCC(C)C1CCC2C3CC=C4CC(OC(=O)CNC(=O)[C@@H]5CCCN5C(=O)[C@H](CC(C)C)NC(=O)[C@H](CCC(N)=O)NC(=O)[C@H](C)NC(=O)[C@@H]5CCCN5C(=O)C5=CN(C)C=CC5)CCC4(C)C3CCC12C (some centres not stated) ({Nicotinoyl(1-Me-1,4-dihydro)}-PAQLPG-X1) | 24.3 |
| CC(C)CCC(C)C1CCC2C3CC=C4CC(OC(=O)CNC(=O)[C@@H]5CCCN5C(=O)[C@H](CC(C)C)NC(=O)[C@H](CCC(N)=O)NC(=O)[C@@H]5CCCN5C(=O)[C@@H]5CCCN5C(=O)C5=CN(C)C=CC5)CCC4(C)C3CCC12C (some centres not stated) ({Nicotinoyl(1-Me-1,4-dihydro)}-PPQLPG-X1) | 26.8 |
| CC(C)CCC(C)C1CCC2C3CC=C4CC(OC(=O)CNC(=O)[C@@H]5CCCN5C(=O)[C@H](CC(C)C)NC(=O)[C@H](CCC(N)=O)NC(=O)[C@@H]5CCCN5C(=O)C5=CN(C)C=CC5)CCC4(C)C3CCC12C (some centres not stated) ({Nicotinoyl(1-Me-1,4-dihydro)}-PQLPG-X1) | 29.2 |
